Measurements as given in patent US7166622B2, “Substituted phenylsulfonamide inhibitors of beta amyloid production” (Wyeth, priority 2002, dated 2007).
“And” between values parts separate entries of the source, which are not always exact repeats. Identical values can stand only once. Like-named read-outs stand apart in the source and are kept apart here.

Columns and labels:
beta amyloid production = experiment: Repressor Release Assay (RRA); assay type: cell-based; details: for APPI % of Example #98: relative to Example 98
Procedure, shortened: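 CHO-K1 cells transiently co-transfected with pRSVO-luc and an APP-lacI construct, replated, then treated in duplicate for 36-48 h at 37 °C, 5% CO2. Compounds diluted in 25 mM Hepes, with Hepes/1% DMSO as diluent control. Luciferase read-out in relative light units; toxicity scored 1 non-toxic, 0 toxic.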

CHO-K1 cells = experiment: Toxicity in RRA (loss of luciferase signal); details: toxicity = loss of signal (<0.75 fold increase)
Experimental: The beta amyloid inhibitory activity of the compounds of the present invention was determined using the Repressor Release Assay (RRA).
“Fold Increase” refers to the amount of luciferase activity (measured in relative light units) over diluent control. “SEM” refers to the standard error of the mean for fold increase.

[1] = Conc 10 μg/ml, luciferase activity over diluent control, read-out: APPI Fold Increase
[2] = Conc 20 μg/ml, luciferase activity over diluent control, read-out: APPI Fold Increase
[3] = Conc 10 μg/ml, luciferase activity over diluent control
[4] = Conc 20 μg/ml, luciferase activity (RLU) over diluent control, read-out: APPI Fold Increase
[5] = Conc 20 μg/ml, 1=non-toxic, 0=toxic
[6] = Conc 20 μg/ml, luciferase activity over diluent control

Molecule | fold induction at 10 µg/mL (beta amyloid production; [1]) | (%)APPI Toxicity (CHO-K1 cells; Conc 10 μg/ml) | fold induction at 20 µg/mL (beta amyloid production; [2]) | (%)APPI Toxicity (CHO-K1 cells; Conc 20 μg/ml) | also measured
CCC(O)[C@@H](NS(=O)(=O)c1ccc(F)cc1)[C@@H](C)CC (stereo partly drawn) [Example 135, 4-fluoro-N-{(1S)-2-hydroxy-1-[(1S)-1-methylpropyl]butyl}benzenesulfonamide] | 1.91 | 1 (1=non-toxic) | – | – | –
CC(C)[C@@H](CO)NS(=O)(=O)c1cc(F)c(Br)cc1F [Example 26, 4-bromo-2,5-difluoro-N-[(1S)-1-(hydroxymethyl)-2-methylpropyl]benzenesulfonamide] | – | – | 2.4 | 1 (1=non-toxic) | –
CC[C@H](C)[C@H](NS(=O)(=O)c1ccc(Br)cc1)C(O)c1ccc(N(C)C)cc1 (stereo partly drawn) [Example 164, 4-bromo-N-{(1S,2S)-1-[[4-(dimethylamino)phenyl](hydroxy)methyl]-2-methylbutyl} benzenesulfonamide] | – | 1 (1=non-toxic) | – | – | APPI Fold Increase (beta amyloid production; [3]): 3.53 fold; APPI % of Example #98 (beta amyloid production; Conc 10 μg/ml): 149.31%
CC[C@H](C)[C@@H](CO)NS(=O)(=O)c1ccc(F)cc1Cl [Example 5, 2-chloro-4-fluoro-N-[(1S,2S)-1-(hydroxymethyl)-2-methylbutyl]benzenesulfonamide] | – | – | 2.5 | 1 (1=non-toxic) | –
C=CCCC(O)[C@@H](NS(=O)(=O)c1ccc(F)cc1)[C@@H](C)CC (stereo partly drawn) [Example 141, 4-fluoro-N-{(1S)-2-hydroxy-1-[(1S)-1-methylpropyl]-5-hexenyl}benzenesulfonamide] | 1.79 | 1 (1=non-toxic) | – | – | –
CCCCCC(O)[C@@H](NS(=O)(=O)c1ccc(Br)cc1)[C@@H](C)CC (stereo partly drawn) [Example 147, 4-bromo-N-{(1S)-2-hydroxy-1-[(1S)-1-methylpropyl]heptyl}benzenesulfonamide] | 1.94 | 1 (1=non-toxic) | – | – | –
C[C@@H](c1ccccc1)[C@@H](CO)NS(=O)(=O)c1ccc(Br)cc1 [Example 82, 4-bromo-N-[(1S,2S)-1-(hydroxymethyl)-2-phenylpropyl]benzenesulfonamide] | – | – | – | – | fold induction at 20 µg/mL (beta amyloid production; [4]): 2.6; (%)APPI Toxicity (CHO-K1 cells; [5]): 1 (1=non-toxic)
CCC(O)[C@@H](NS(=O)(=O)c1ccc(Br)cc1)[C@@H](C)CC (stereo partly drawn) [Example 153, 4-bromo-N-{(1S)-2-hydroxy-1-[(1S)-1-methylpropyl]butyl}benzenesulfonamide] | 4.77 | 1 (1=non-toxic) | – | – | fold induction at 3 µg/mL (beta amyloid production; Conc 3 μg/ml, luciferase activity over diluent control, read-out: APPI Fold Increase): 2; (%)APPI Toxicity (CHO-K1 cells; Conc 3 μg/ml): 1 (1=non-toxic)
CC[C@H](C)[C@H](NS(=O)(=O)c1ccc(Cl)cc1)C(O)(CC(C)C)CC(C)C [Example 226, 4-chloro-N-{(1S)-2-hydroxy-2-isobutyl-4-methyl-1-[(1S)-1-methylpropyl]pentyl}benzenesulfonamide] | 4.6 | 1 (1=non-toxic) | – | – | –
CC[C@H](C)[C@H](NS(=O)(=O)c1ccc(F)cc1)C(O)(CC(C)C)CC(C)C [Example 240, 4-fluoro-N-{(1S)-2-hydroxy-2-isobutyl-4-methyl-1-[(1S)-1-methylpropyl]pentyl}benzenesulfonamide] | 3.82 | 1 (1=non-toxic) | – | – | –
CCCCC(O)[C@@H](NS(=O)(=O)c1cccc(Cl)c1)[C@@H](C)CC (stereo partly drawn) [Example 189, 3-chloro-N-{(1S)-2-hydroxy-1-[(1S)-1-methylpropyl]hexyl}benzenesulfonamide] | 1.51 | 1 (1=non-toxic) | – | – | –
O=S(=O)(NC1(CO)CCCCC1)c1ccc(Cl)cc1 [Example 123, 4-chloro-N-[1-(hydroxymethyl)cyclohexyl]benzenesulfonamide] | – | – | 4.4 | 1 (1=non-toxic) | –
C[C@@H](NS(=O)(=O)c1ccc(Br)cc1)[C@@H](O)c1ccccc1 [Example 100, 4-bromo-N-[(1R,2S)-2-hydroxy-1-methyl-2-phenylethyl] benzenesulfonamide] | – | – | – | 1 (1=non-toxic) | APPI Fold Increase (beta amyloid production; [6]): 1.6 fold; APPI % of Example #98 (beta amyloid production; Conc 20 μg/ml): 41%
CC[C@H](C)[C@H](NS(=O)(=O)c1ccccc1F)C(O)(c1ccccc1)c1ccccc1 [Example 263, 2-fluoro-N-{(1S,2 S)-1-[hydroxy (diphenyl)methyl]-2-methylbutyl}benzenesulfonamide] | 1.57 | 1 (1=non-toxic) | – | – | –
CC[C@H](C)[C@@H](CO)NS(=O)(=O)c1cc(Cl)ccc1OC [Example 6, 5-chloro-N-[(1S,2S)-1-(hydroxymethyl)-2-methylbutyl]-2-methoxybenzenesulfonamide] | – | – | 1.7 | 1 (1=non-toxic) | –
CCCCCC[C@@H](CC)[C@@H](CO)NS(=O)(=O)c1ccc(Cl)cc1 [Example 89, 4-chloro-N-[(1S,2R)-2-ethyl-1-(hydroxymethyl)octyl] benzenesulfonamide] | – | – | – | – | APPI Fold Increase (beta amyloid production; Conc 20 μg/ml, luciferase activity (RLU) over diluent control): 22.4; APPI % of Example #98 (beta amyloid production; Conc 20 μg/ml): 97.9%; (%)APPI Toxicity (CHO-K1 cells; [5]): 1 (1=non-toxic)

Molecule | fold induction at 10 µg/mL (beta amyloid production; [1]) | (%)APPI Toxicity (CHO-K1 cells; Conc 10 μg/ml) | fold induction at 20 µg/mL (beta amyloid production; [2]) | (%)APPI Toxicity (CHO-K1 cells; Conc 20 μg/ml) | also measured
CC(C)[C@@H](CO)NS(=O)(=O)c1ccc(Cl)c(Cl)c1 [Example 27, 3,4-dichloro-N-[(1S)-1-(hydroxymethyl)-2-methylpropyl]benzenesulfonamide] | – | – | 2.2 | 1 (1=non-toxic) | –
CC[C@H](C)[C@H](NS(=O)(=O)c1ccc(F)cc1)C(O)c1cccc2ccccc12 (stereo partly drawn) [Example 144, 4-fluoro-N-{(1S,2S)-1-[hydroxy(1-naphthyl)methyl]-2-methylbutyl}benzenesulfonamide] | 1.69 | 1 (1=non-toxic) | – | – | –
C=CCC(O)(CC=C)[C@@H](NS(=O)(=O)c1ccc(Cl)cc1)[C@@H](C)CC [Example 228, N-{(1S)-2-allyl-2-hydroxy-1-[(1S)-1-methylpropyl]-4-pentenyl}-4-chloro benzenesulfonamide] | – | 1 (1=non-toxic) | – | – | APPI Fold Increase (beta amyloid production; [3]): 1.56 fold; APPI % of Example #98 (beta amyloid production; Conc 10 μg/ml): 71.57%
CCCCCC[C@@H](c1ccco1)[C@@H](CO)NS(=O)(=O)c1ccc(Cl)cc1 [Example 68, 4-chloro-N-[(1S,2R)-2-(2-furyl)-1-(hydroxymethyl)octyl]benzenesulfonamide] | – | – | – | – | fold induction at 20 µg/mL (beta amyloid production; [4]): 2; (%)APPI Toxicity (CHO-K1 cells; [5]): 1 (1=non-toxic)
O=S(=O)(NC1(CO)CCCC1)c1ccc(Cl)cc1 [Example 103, 4-chloro-N-[1-(hydroxymethyl)cyclopentyl]benzenesulfonamide] | – | – | 2.6 | 1 (1=non-toxic) | –
CC[C@H](C)[C@@H](CO)N(Cc1ccc(OC)c(OC)c1)S(=O)(=O)c1ccc(Cl)cc1 [Example 45, 4-chloro-N-(3,4-dimethoxybenzyl)-N-[(1S,2S)-1-(hydroxymethyl)-2-methylbutyl]benzenesulfonamide] | – | – | 1.5 | 1 (1=non-toxic) | –
3,4-dibromo-N-[(11S)-1-(hydroxymethyl)-2,2-dimethylpropyl]benzenesulfonamide [Example 29] | – | – | – | 1 (1=non-toxic) | APPI Fold Increase (beta amyloid production; [6]): 2.1 fold; APPI % of Example #98 (beta amyloid production; Conc 20 μg/ml): 49.5%
CC[C@H](C)[C@H](NS(=O)(=O)c1ccc(Cl)cc1)C(O)(c1cccc2ccccc12)c1cccc2ccccc12 [Example 234, 4-chloro-N-((1S,2S)-1-{hydroxy[di(1-naphthyl)]methyl}-2-methylbutyl) benzenesulfonamide] | – | 1 (1=non-toxic) | – | – | APPI Fold Increase (beta amyloid production; [3]): 2.9 fold and 1.6 fold
CC[C@H](C)[C@H](NS(=O)(=O)c1cccc(Cl)c1)C(O)c1ccc(OC)cc1 (stereo partly drawn) [Example 198, 3-chloro-N-{(1S,2S)-1-[hydroxy(4-methoxyphenyl)methyl]-2-methylbutyl}benzenesulfonamide] | 1.54 | 1 (1=non-toxic) | – | – | –
CC(C)(C)[C@@H](CO)NS(=O)(=O)c1ccc(Cl)c(Cl)c1 [Example 30, 3,4-dichloro-N-[(1S)-1-(hydroxymethyl)-2,2-dimethylpropyl]benzenesulfonamide] | – | – | 2.1 | 1 (1=non-toxic) | –
CC[C@H](C)[C@H](NS(=O)(=O)c1ccccc1F)C(O)(c1ccc(Cl)cc1)c1ccc(Cl)cc1 [Example 267, N-{(1S,2S)-1-[bis(4-chlorophenyl)(hydroxy)methyl]-2-methylbutyl}-2-fluoro benzenesulfonamide] | – | 1 (1=non-toxic) | – | – | APPI Fold Increase (beta amyloid production; [3]): 1.59 fold; APPI % of Example #98 (beta amyloid production; Conc 10 μg/ml): 58.97%
CC[C@H](C)[C@@H](CO)NS(=O)(=O)c1ccc(Cl)c(Cl)c1 [Example 24, 3,4-dichloro-N-[(1S,2S)-1-(hydroxymethyl)-2-methylbutyl]benzenesulfonamide] | – | – | 1.6 | 1 (1=non-toxic) | –
CC[C@H](C)[C@H](NS(=O)(=O)c1ccc(Cl)cc1)C(O)c1ccc(N(C)C)cc1 (stereo partly drawn) [Example 183, 4-chloro-N-{(1S,2S)-1-[[4-(dimethylamino)phenyl](hydroxy)methyl]-2-methylbutyl}benzenesulfonamide] | 4.49 | 1 (1=non-toxic) | – | – | –
CC[C@H](C)[C@H](NS(=O)(=O)c1ccc(Cl)cc1)C(C)O (stereo partly drawn) [Example 165, 4-Chloro-N-[(1S,2S)-1-(hydroxyethyl)-2-methylbutyl]benzenesulfonamide] | 2.05 | 1 (1=non-toxic) | – | – | –
CC(C)C[C@@H](CO)NS(=O)(=O)c1ccc(Br)cc1 [Example 18, 4-bromo-N-[(1S)-1-(hydroxymethyl)-3-methylbutyl]benzenesulfonamide] | – | – | 1.9 | 1 (1=non-toxic) | –
